Read-outs that look alike come from different tables or passages of the source.
How the values were obtained:
[1] = Pharmacokinetic test using chimeric mouse, 5 marker drugs simultaneously, oral or intravenous, donor IVT079; conditions: for AUC / half-life / bioavailability / Cmax / t 1/2 Distribution phase: mouse, in vivo
Description: (§1) As for the chimeric mice, chimeric mice produced by Hiroshima Prefectural Institute of Industrial Science and Technology or PhoenixBio Co., Ltd. were used. To be more specific, mice in which human hepatocytes were engrafted and proliferated in the mouse liver were produced by transplanting human hepatocytes (IVT079, purchased from In Vitro Technology Inc., or BD51, purchased from BD Gentest Inc.) into the spleen of uPA(+/+)/SCID mice, which are mice having hepatic impairment and immunodeficiency. Mice in which 70% or more of the mouse liver had been replaced with human hepatocytes (high-replacement chimeric mice) and low-replacement chimeric mice in which although human hepatocytes had been transplanted, the replacement ratio was almost 0%, or untransplanted mice (mice with no replacement) were used (3 mice in each group). Further, as a control, 3 uPA(−/−)/SCID mice were used.
(§2) The concentration for administration of tolbutamide which is a standard drug for CYP2C9 was […]., and 4.175 mg of tolbutamide was weighed out and suspended in 1 ml of a CMC liquid in an agate mortar, and a 4.175 mg/ml suspension which is 5 times as high as the concentration for administration was prepared.
(§3) To the high-replacement chimeric mice, low-replacement chimeric mice (or mice with no replacement) and uPA(−/−)/SCID mice (3 mice in each group), 5 compounds were simultaneously administered orally by gavage or intravenously. The blood was collected from the tail vein of each mouse in an amount of 15 μl each at 0.25 (only intravenous administration), 0.5, 1, 2, 4 (only oral administration) and 8 hours after administration. Then, the blood was centrifuged at 3,500 rpm for 5 minutes, and the serum (supernatant) was collected and stored in a freezer at −30° C.
(§4) The serum samples were transported to Sumika Chemical Analysis Service, Ltd. while keeping it in dry ice, and subjected to measurement by LC-MS/MS according to the following procedure.
(§5) With regard to a liquid chromatograph, SIL-HTC and LC-10A series (Shimadzu Corporation) were used, and as a column, Synergi 4μ Polar-RP 80A, 150 mm (length)×2.00 mm (inner diameter), 4 μm (Phenomenex Inc.) was used at 30° C. As a mobile phase, methanol/a 10 mmol/l ammonium acetate solution/acetic acid (700/300/2, v/v/v) was used, and a flow rate was set at 0.2 ml/min. An injection volume was set at 2 μl, a measurement time was set at 10 min, and the temperature of an autosampler was set at 4° C. As a mass spectrometer, Tandem Mass Spectrometer API 4000 (Applied Biosystems/MDS SCIEX Inc.) was used. As API interface, Turbo V (ESI probe) was used, and as Ionization mode, Positive ion detection mode was used.
To Eppendorf tubes in which 5 μl of samples to be measured (serum) were contained, 100 μl of methanol was added, and 10 μl of 1 μg/ml of I.S. standard solution was added thereto, and then, the mixtures were thoroughly mixed by an ultrasonic treatment and a vortex mixer. The resulting mixtures were centrifuged (15,000 rpm, 5 min, room temperature), and the resulting supernatants were subjected to centrifugal filtration (10,000 rpm, 2 min, room temperature) with a filter, and the resulting filtrates were used as injection samples for LC-MS/MS.
(§6) The determined values of the drug concentration in the serum were calculated from the peak area ratio obtained by the LC-MS/MS measurement of the samples for addition calibration curve. […] From the graphs, the peak serum concentration (Cmax), half-life (t1/2), area under the curve (AUC), bioavailability and clearance were analyzed, and pharmacokinetics in human was predicted.

CYP2D6 = experiment: Pharmacokinetic test of marker drugs in high-replacement chimeric mouse under inhibition of CYP2D6 by paroxetine, donor BD51; conditions: uPA(+/+)/SCID, po
Procedure: As for the chimeric mice, chimeric mice produced in PhoenixBio Co., Ltd. were used. To be more specific, 3 mice in which human hepatocytes were engrafted and proliferated in the mouse liver were produced by transplanting human hepatocytes (BD51, purchased from BD Gentist Inc.) into the spleen of uPA(+/+)/SCID mice, which are mice having hepatic impairment and immunodeficiency.
Paroxetine was dissolved in Milli-Q water (using a bath-type ultrasonic device) and prepared to give a final concentration of 6 mg/ml. The prepared drug was intraperitoneally administered to the mice at a dose of 5 μl/g b.w. (30 mg/kg b.w./day).
To the high-replacement chimeric mice, paroxetine was intraperitoneally administered for 3 days. Then, in the same manner as in Example 1, 5 compounds were simultaneously administered orally by gavage, the blood was collected over time, and the serum was stored.
The determination and analysis of drugs in the serum were carried out in the same manner as in Example 1.
The determined values of the drug concentration in the serum were calculated from the peak area ratio obtained by the LC-MS/MS measurement of the samples for addition calibration curve. […] From the graphs, Cmax, t1/2 and AUC were analyzed.

[2] = mouse, in vivo; for AUC: uPA(+/+)/SCID
Description: as §1, §2, §3, §4, §5
To Eppendorf tubes in which 5 μl of samples to be measured (serum) were contained, 100 μl of methanol was added, and 10 μl of 1 μg/ml of I.S. standard solution was added thereto, and then, the mixtures were thoroughly mixed by an ultrasonic treatment and a vortex mixer. […]
as §6

[3] = uPA(−/−)/SCID, iv, t 1/2 Distribution phase
[4] = uPA(−/−)/SCID, iv, t 1/2 Elimination phase
[5] = mouse, t 1/2 Distribution phase

For `COc1ccc2c(c1)[C@]13CCCC[C@@H]1[C@H](C2)N(C)CC3` [Dextromethorphan, dextromethorphan], the “AUC in high-replacement chimeric mice compared with low-replacement chimeric mice” value ([1]; donor hepatocytes IVT079) was “significantly lower”, the AUC ([1]; uPA(+/+)/SCID, iv, intravenous administration, high-replacement chimeric mouse, donor IVT079) was 4030 ng·h/mL and the AUC ([1]; uPA(+/+)/SCID, iv, intravenous administration, low-replacement chimeric mouse, donor IVT079) was 4600 ng·h/mL. For the same compound, the half-life ([1]; uPA(+/+)/SCID, iv, t 1/2 Distribution phase, intravenous administration, high-replacement chimeric mouse, donor IVT079, time window per footnote) was 3.15 h, the half-life ([1]; uPA(+/+)/SCID, iv, t 1/2 Distribution phase, intravenous administration, low-replacement chimeric mouse, donor IVT079, time window per footnote) was 0.414 h and the half-life ([1]; uPA(+/+)/SCID, iv, t 1/2 Elimination phase, intravenous administration, high-replacement chimeric mouse, donor IVT079, 2-8 hr) was 1.23 h. The half-life ([1]; uPA(+/+)/SCID, iv, t 1/2 Elimination phase, intravenous administration, low-replacement chimeric mouse, donor IVT079, 2-8 hr) was 1.5 h, the AUC ([1]; uPA(+/+)/SCID, po, oral administration, high-replacement chimeric mouse, donor IVT079) was 1020 ng·h/mL and the AUC ([1]; uPA(+/+)/SCID, po, oral administration, low-replacement chimeric mouse, donor IVT079) was 3650 ng·h/mL. It also gave a bioavailability ([1]; uPA(+/+)/SCID, po, high-replacement chimeric mouse, donor IVT079) of 2.53%, a bioavailability ([1]; uPA(+/+)/SCID, po, low-replacement chimeric mouse, donor IVT079) of 7.93% and a Cmax ([1]; uPA(+/+)/SCID, po, oral administration, high-replacement chimeric mouse, donor IVT079, serum) of 276 ng/mL. For the same compound, the Cmax ([1]; uPA(+/+)/SCID, po, oral administration, low-replacement chimeric mouse, donor IVT079, serum) was 836 ng/mL, the half-life ([1]; uPA(+/+)/SCID, po, t 1/2 Distribution phase, oral administration, high-replacement chimeric mouse, donor IVT079, time window per footnote) was 1.15 h and the half-life ([1]; uPA(+/+)/SCID, po, t 1/2 Distribution phase, oral administration, low-replacement chimeric mouse, donor IVT079, time window per footnote) was 2.88 h. The half-life ([1]; uPA(+/+)/SCID, po, t 1/2 Elimination phase, oral administration, high-replacement chimeric mouse, donor IVT079, time window per footnote) was 10.4 h, the half-life ([1]; uPA(+/+)/SCID, po, t 1/2 Elimination phase, oral administration, low-replacement chimeric mouse, donor IVT079, time window per footnote) was 9.98 h and the AUC ([1]; uPA(−/−)/SCID, iv, intravenous administration, uPA(−/−)/SCID mouse) was 2610 ng·h/mL. For the same compound, the half-life ([1]; uPA(−/−)/SCID, iv, t 1/2 Distribution phase, intravenous administration, uPA(−/−)/SCID mouse, time window per footnote) was 0.47 h, the AUC ([1]; uPA(−/−)/SCID, po, oral administration, uPA(−/−)/SCID mouse) was 580 ng·h/mL and the bioavailability ([1]; uPA(−/−)/SCID, po, uPA(−/−)/SCID mouse) was 2.22%. The Cmax ([1]; uPA(−/−)/SCID, po, oral administration, uPA(−/−)/SCID mouse, serum, dose per drug in table) was 130 ng/mL, the half-life ([1]; uPA(−/−)/SCID, po, t 1/2 Distribution phase, oral administration, uPA(−/−)/SCID mouse, time window per footnote) was 2.45 h and the AUC (CYP2D6; in vivo) was 358 ng·h/mL. For the same compound, the Cmax (CYP2D6; in vivo, 30 mg/kg/day) was 156 ng/mL, the half-life (CYP2D6; in vivo, t 1/2 Distribution phase, high-replacement chimeric mouse, donor BD51, inhibitor paroxetine, time window per footnote) was 1.44 h and the half-life (CYP2D6; in vivo, t 1/2 Elimination phase, high-replacement chimeric mouse, donor BD51, inhibitor paroxetine, time window per footnote) was 5.29 h.
For `Cn1c(=O)c2c(ncn2C)n(C)c1=O` [Caffeine, caffeine], the “t 1/2 Distribution phase” value ([1]; uPA(+/+)/SCID, iv) was 0.437^#3 hr, the half-life ([1]; uPA(+/+)/SCID, iv, t 1/2 Distribution phase) was 0.809 h and the “t 1/2 Distribution phase” value ([1]; uPA(+/+)/SCID, po) was 2.16^#3 hr. For the same compound, the half-life ([1]; uPA(+/+)/SCID, po, t 1/2 Distribution phase) was 3.45 h, the AUC ([1]; uPA(−/−)/SCID, iv) was 4070 ng·h/mL and the half-life [1, 3] was 0.609 h. It also gave a half-life [1, 4] of 0.505 h, an AUC ([1]; uPA(−/−)/SCID, po) of 33200 ng·h/mL and a bioavailability ([1]; uPA(−/−)/SCID, po) of 81.6%. For the same compound, the Cmax ([1]; uPA(−/−)/SCID, po) was 8800 ng/mL, the half-life ([1]; uPA(−/−)/SCID, po, t 1/2 Elimination phase) was 0.82 h and the “AUC in high-replacement chimeric mice compared with low-replacement chimeric mice” value [2] was “significantly lower”. For the same compound, the AUC [2] was 65700 ng·h/mL, the AUC (CYP2D6; mouse) was 97100 ng·h/mL and the half-life (CYP2D6; [5]) was 3.4 h.
Work on `COc1ccc2[nH]c([S+]([O-])Cc3ncc(C)c(OC)c3C)nc2c1` (centres unmarked) [Omeprazole, omeprazole] yielded a half-life ([1]; uPA(+/+)/SCID, po, t 1/2 Elimination phase) of 1.03 h, an AUC ([1]; uPA(−/−)/SCID, iv) of 840 ng·h/mL and a half-life [1, 3] of 0.24 h. It also gave a half-life [1, 4] of 0.971 h, an AUC ([1]; uPA(−/−)/SCID, po) of 114 ng·h/mL and a bioavailability ([1]; uPA(−/−)/SCID, po) of 1.36%. It also gave a Cmax ([1]; uPA(−/−)/SCID, po) of 94 ng/mL, an AUC [2] of 322 ng·h/mL and an AUC (CYP2D6; mouse) of 964 ng·h/mL. The half-life (CYP2D6; [5]) was 0.3 h and the half-life (CYP2D6; mouse, t 1/2 Elimination phase) was 1.55 h.

Reference: US20090047655A1, “Method Of Screening Candidate Drug” (priority 2004, published 2009)
